Experimental data reported in US9983195B2, “Engineered three-dimensional breast tissue, adipose tissue, and tumor disease model” (ORGANOVO, INC., priority 2014, dated 2018).

Key:
Type in all cases: cell-based, human
[1] = test system: bioprinted breast cancer tumor models (stromal and cancer compartments); assay: Apoptosis by TUNEL staining with CK8 and TE7 markers in bioprinted breast cancer tumor models; conditions: 100 μM cisplatin for 4 days; FIG. 22
Description: (§1) The breast cancer tumor models included a nodule of human breast cancer cells surrounded by a physiologically-relevant stromal layer, which included human adipocytes differentiated from human mesenchymal stem cells, human mammary fibroblasts, and human endothelial cells. The adipocytes were derived from mesenchymal stem cells which were isolated an exposed to an adipocyte differentiation signal prior to preparation of the bio-ink and bioprinting.
Referring to FIG. 22, bioprinted tissues were treated with vehicle (A-C) or 100 μM cisplatin (D-F) for 4 days. The first (A and D) and second (B and E) columns depict tissues assessed for apoptosis by TUNEL staining (green) and markers for cancer cells (CK8, red). The last (C and F) column depicts tissues assessed for apoptosis by TUNEL staining (green) and markers for fibroblasts (TE7, red).

[2] = test system: bioprinted breast cancer constructs (MCF7/HUVEC cancer node surrounded by NHMF, HUVEC, SPA stroma); assay: Construct viability after drug treatment by alamarBlue assay; conditions: 10 μM compound for 3 days, followed by 100 μM compound for 24 hours; FIG. 14
Description: Bioprinted breast cancer constructs were generated in which a cancer cell node, composed of MCF7 breast cancer cells and human umbilical vein endothelial (HUVEC) cells, is surrounded on all sides by a stromal compartment composed of normal human mammary fibroblasts (NHMF), HUVEC cells, and subcutaneous preadipocytes (SPA). Bio-inks were produced by combining cells with a reversibly cross-linkable, alginate-containing hydrogel (Novogel® 3.0 System; Organovo, Calif.). The stromal compartment of the constructs was comprised of 65% NHMF, 25% HUVEC, and 10% SPA (partially pre-differentiated). The cancer compartment of the constructs was comprised of 75% MCF7, 25% HUVEC. For each compartment, cells were mixed together at the indicated ratio and resuspended in Novogel® 3.0 at a concentration of 150 million cells/ml. Constructs were printed as 3 layered structures with a dimension of 3 mm×3 mm×0.75 mm. Immediately following bioprinting, constructs were stabilized via crosslinking. After 2 minutes, the calcium crosslinking solution was aspirated and replaced with culture media. After 2 days in culture, constructs were treated overnight with enzyme dissolved in culture media to remove the Novogel® 3.0. […] Constructs were assessed for metabolic activity by alamarBlue assay (Life Technologies, Carlsbad, Calif.) or CellTiter Glo assay (Promega, Madison, Wis.). […]

[3] = test system: breast cancer cells in two-dimensional culture and bioprinted breast cancer tumor models; assay: Viability by ATP luciferase assay, two-dimensional breast cancer cell culture versus bioprinted breast cancer tumor models; conditions: 10 μM tamoxifen for 48 hours, FIG. 20
Description: as §1
The breast cancer tumor models were exposed to chemotherapy compounds in order to access drug response. Referring to FIG. 20, breast cancer cells grown in two-dimensional cell culture (A) and the bioprinted breast cancer tumor models (B) were treated with media alone, DMSO, or 10 μM tamoxifen for 48 hours and assessed for viability by ATP luciferase assay. For each graph, * indicates p<0.05 for treatment compared to control.

| SMILES | apoptosis (TUNEL) in stromal versus cancer compartment [1] | construct viability (alamarBlue) relative to media or vehicle controls [2] | susceptibility to tamoxifen-induced toxicity, two-dimensional cells versus three-dimensional bioprinted constructs [3] |
| --- | --- | --- | --- |
| N.N.[Cl][Pt][Cl] [Cisplatin, cisplatin] | induces greater apoptosis in the stromal compartment of bioprinted tissues than in the cancer compartment | decreased construct viability | – |
| CC(=O)O[C@H]1C(=O)[C@@]2(C)[C@H]([C@H](OC(=O)c3ccccc3)[C@]3(O)C[C@H](OC(=O)[C@H](O)[C@@H](NC(=O)c4ccccc4)c4ccccc4)C(C)=C1C3(C)C)[C@]1(OC(C)=O)CO[C@@H]1C[C@@H]2O [paclitaxel] | – | decreased construct viability | – |
| CC/C(=C(\c1ccccc1)c1ccc(OCCN(C)C)cc1)c1ccccc1 [tamoxifen] | – | – | Isolated two-dimensional cancer cells were more susceptible to tamoxifen-induced toxicity than cells incorporated into three-dimensional bioprinted constructs |
